In patent EP3578180A1, “MODULATORS OF SERYL-TRNA SYNTHASE AND PHARMACEUTICAL COMPOSITIONS COMPRISING THE SAME FOR INCREASING CELL HYPOXIC TOLERANCE” (Centre National de la Recherche Scientifique (CNRS), priority 2018, dated 2019):
Where two headings read alike, the source gives them in different places.

Experiments:
PCT cells = test: LIVE/DEAD cell viability of kidney cells under anoxia; type: cell-based, murine
Experimental: HT22 mouse hippocampal neuronal cells were cultured in Dulbecco's modified Eagle's medium (DMEM; Gibco) supplemented with 10% FBS (Gibco), 100U/ml streptomycin, 100U/ml penicillin at 37 °C in 5% CO2/95% air. Renal PCT cells were obtained from primary cultures of murine proximal tubule segments and cultured as previously described (Melis, N. et al. Targeting eIF5A Hypusination Prevents Anoxic Cell Death through Mitochondrial Silencing and Improves Kidney Transplant Outcome. J Am Soc Nephrol 28, 811-822, doi:10.1681/ASN.2016010012 (2017)). Hypoxic or anoxic conditions were created by maintaining cell cultures at 37°C in a sealed "Bug-Box" anaerobic workstation (Ruskin Technologies). Oxygen Glucose Deprivation (OGD) was induced on HT22 cells placing them in glucose-free Hepes balanced salt solution without glucose (HBSS: NaCl 116mM, KCl 5.4mM, CaCl2 1.8mM, MgSO4 0.8mM, NAH2PO4 1mM, NaHCO3 26.2mM,; pH 7.2-7.4) in an hypoxic chamber filled with 98.5% N2 and 1.5% CO2 at 37°C for 3h. Upon removal of the cultures from the chamber, the growth medium was changed back to normal medium.
The Fluorescent LIVE/DEAD® Cell Viability/Cytotoxicity Assay Kit (Invitrogen, France) was used on PCT cells (24-well plates) according to the manufacturer's protocol. Fluorescent micrographs were recorded using an observer D1 microscope (Zeiss).
150,000 PCT cells were seeded in Petri dishes and transfected 24 h later with 50 nM serRS pooled siRNAs (Sigma MISSION®esiRNA targeting mouse serRS: EMU081851) using Lipofectamine™ 3000 transfection reagent (Invitrogen). Cells were exposed to various experimental procedures 24-48 h post-transfection, as described in the text.

mice = test: tMCAo stroke model, infarct volume (cresyl violet); type: in vivo; settings: SerHX pretreatment, '15 mM serHX group'; 60 min tMCAo; 24 h post-reperfusion; Fig.3C
Experimental: Male 7-week old C57BL/6J mice (Janvier France Breeding) were housed in a temperature- and humidity-controlled animal facility with a 12-h light-dark cycle. Food and water were available ad libitum. All animal care and use were performed with in accordance to the policies of European Community Directive 86/609/EEC. All efforts were made to minimize animal suffering and the number of animals used.
tMCAO was performed 30 min after the final injection using a 6-0 coated filament (Doccol), as previously described (Bourourou, M., Heurteaux, C. & Blondeau, N. Alpha-linolenic acid given as enteral or parenteral nutritional intervention against sensorimotor and cognitive deficits in a mouse model of ischemic stroke. Neuropharmacology 108, 60-72, doi:10.1016/j.neuropharm.2016.04.040 (2016)). Control of tMCAo severity and reperfusion was evaluated monitoring the regional cerebral blood flow by laser-Doppler flowmetry. Infarct volume (mm^3) was mesured 24 h post-reperfusion on coronal frozen brain sections ([…]) stained by 1% cresyl violet in 0.25% acetic acid using a computer image analysis system.
Animals were randomly assigned to vehicle or serHX groups prepared for 3 experimental protocols. Protocol 1: Vehicle and serHX were administrated intraperitoneally (416 mM, 150µl IP) 48, 24, 2h before a 60min tMCAo. […]

SMILES: N[C@@H](CO)C(=O)O [serine]
- renal cell survival after 24 h of anoxia (in words) (PCT cells; anoxia 24 h, <0.1% O2, Fig.1A): no effect

SMILES: C[C@@H]1C[C@@H]([C@H](O)CC2CC(=O)NC(=O)C2)C(=O)[C@@H](C)C1 [cycloheximide]
- living kidney cells (PCT cells): 64%
- renal cell survival after 24 h of anoxia (in words) (PCT cells): increased renal cell survival

SMILES: NC(CO)C(=O)NO (centres unmarked) [serine hydroxamate]
- reduction of infarct volumes compared with the vehicle group (mice): 30%
- living kidney cells (PCT cells; anoxia 24 h, <0.1% O2, cells treated with the inhibitor beforehand, CHX 1 to 10 pg/ml, Fig.1A): 95%
